The target in assay [1] is T1, NAD-dependent protein deacetylase sirtuin-1 (Homo sapiens, UniProt Q96EB6).
T1 sequence (Q96EB6 whole entry): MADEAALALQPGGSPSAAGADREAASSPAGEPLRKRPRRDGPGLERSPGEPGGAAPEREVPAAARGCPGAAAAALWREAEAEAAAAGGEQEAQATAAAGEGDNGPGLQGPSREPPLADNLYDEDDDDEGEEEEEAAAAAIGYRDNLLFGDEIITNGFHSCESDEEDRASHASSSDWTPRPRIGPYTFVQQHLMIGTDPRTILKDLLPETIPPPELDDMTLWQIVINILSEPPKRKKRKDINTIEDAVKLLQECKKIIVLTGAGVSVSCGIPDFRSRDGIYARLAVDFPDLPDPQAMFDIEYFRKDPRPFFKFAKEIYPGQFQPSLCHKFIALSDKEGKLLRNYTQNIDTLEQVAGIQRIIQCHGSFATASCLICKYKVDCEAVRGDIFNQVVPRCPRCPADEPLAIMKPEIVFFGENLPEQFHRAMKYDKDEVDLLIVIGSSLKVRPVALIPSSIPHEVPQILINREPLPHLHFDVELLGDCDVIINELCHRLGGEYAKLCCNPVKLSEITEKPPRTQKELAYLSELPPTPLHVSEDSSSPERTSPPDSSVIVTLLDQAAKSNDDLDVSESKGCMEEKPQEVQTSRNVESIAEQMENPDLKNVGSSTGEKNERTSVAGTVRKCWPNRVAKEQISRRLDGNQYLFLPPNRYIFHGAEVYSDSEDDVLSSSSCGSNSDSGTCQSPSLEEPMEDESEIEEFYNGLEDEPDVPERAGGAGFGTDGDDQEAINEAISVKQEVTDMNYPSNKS
In words: Inhibition of human GST-tagged SIRT1 using H2NHK-AcK-LM-COOH as substrate assessed as enzymatic deacetylation product formation after 5 mins by HPLC analysis.

For assay [2], the target named is T2, NAD-dependent protein deacetylase sirtuin-2 (Homo sapiens, UniProt Q8IXJ6).
T2 sequence (Q8IXJ6 whole entry): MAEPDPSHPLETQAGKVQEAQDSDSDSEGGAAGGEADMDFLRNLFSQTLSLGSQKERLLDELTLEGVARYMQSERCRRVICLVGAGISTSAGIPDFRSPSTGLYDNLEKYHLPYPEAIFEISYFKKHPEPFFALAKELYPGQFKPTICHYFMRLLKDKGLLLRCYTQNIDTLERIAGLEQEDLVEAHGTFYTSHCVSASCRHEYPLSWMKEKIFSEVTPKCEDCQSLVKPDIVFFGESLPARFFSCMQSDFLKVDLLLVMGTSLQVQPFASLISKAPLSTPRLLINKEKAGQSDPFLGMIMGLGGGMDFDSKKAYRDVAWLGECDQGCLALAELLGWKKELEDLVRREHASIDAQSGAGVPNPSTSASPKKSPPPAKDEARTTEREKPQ
The assay is described as follows: Inhibition of human full length SIRT2 using H2N-MPSD-AcK-TIGG-COOH as substrate assessed as enzymatic deacetylation product formation after 60 mins by HPLC analysis.

Assay [3] deals with T3, NAD-dependent protein deacetylase sirtuin-1 (Homo sapiens) (UniProt Q96EB6).
T3 sequence (whole entry): T1 sequence (Q96EB6 whole entry)
In words: Activity at SIRT1 assessed as formation of alkylamidate intermediate of compound at 0.6 mM after 1 min by MALDI-MS analysis in presence of NAD+.

Assay [4] addresses T3, NAD-dependent protein deacetylase sirtuin-1 (Homo sapiens). The assay is described as follows: Inhibition of SIRT1 in human HCT116 cells expressing wild type p53 assessed as increase in p53 acetylation at K382 after 10 hr by Western blot analysis. The settings on record: HCT-116. For orientation: Immunoblotting shows a protein as a band on a membrane.

The source made the active and inactive calls. No cut-off for these calls is given here. Square brackets hold non-standard residues; d marks the D form. Peptide text beside a SMILES is read from it. Asu = N[C@@H](CCCCCC(=O)O)C(=O)O

In the case of `CC(=O)NCCCC[C@H](NC(=O)[C@H](CCCCCC(N)=O)NC(=O)[C@H](CCCCNC(C)=O)NC(C)=O)C(N)=O` (Ac-Lys(Ac)-[Asu](NH2)-Lys(Ac)-NH2), the half-inhibitory concentration (IC50) (usually the midpoint of a concentration-inhibition curve) in assay [1] turned out to be 290 µM; in assay [2], 190 µM.
Regarding `CC(=O)NCCC[C@H](NC(=O)[C@H](CCCCNC(N)=S)NC(=O)[C@H](CCCNC(C)=O)NC(C)=O)C(N)=O`, the result in assay [3] was Active. The 50% inhibitory concentration (IC50) in assay [1] was 89.5 µM. Also, the inhibition entry in assay [4] was “Dose-dependent effect”.

For the origin of these results see ChEMBL document CHEMBL1811808, “A mechanism-based potent sirtuin inhibitor containing Nε-thiocarbamoyl-lysine (TuAcK)” (Bioorg Med Chem Lett, 2011).
